Source: patent US20080171740A1, “Chemical Compounds” (SMITHKLINE BEECHAM CORPORATION, priority 2004, published 2008)
Like-named read-outs stand apart in the source and are kept apart here.

Legend:
Type in all cases: cell-based
[1] = test system: HIV-1 gp160 (HXB2 strain) mediated fusion with HOS (hCXCR4/hCCR5/hCD4/pHIV-LTR-luciferase) cells; test: Cell/cell fusion assay (HEK-293 expressing HIV-1 tat, rev, gp160 with HOS hCXCR4/hCCR5/hCD4/pHIV-LTR-luciferase cells); details: Homo sapiens, HEK293; luciferase readout after 24 h; read-out: Fusion assay (pIC50) (converted)
From the text: The complete coding sequences of HIV-1 tat (GenBank Accession No. X07861) and rev (GenBank Accession No. M34378) were cloned into pcDNA3.1 expression vectors containing G418 and hygromycin resistance genes, respectively. The complete coding sequence of the HIV-1 (HXB2 strain) gp160 envelope gene (nucleotide bases 6225-8795 of GenBank Accession No. K03455) was cloned into plasmid pCRII-TOPO. The three HIV genes were additionally inserted into the baculovirus shuttle vector, pFastBacMam1, under the transcriptional control of the CMV promoter. A construction of the pHIV-I LTR containing mutated NFkB sequences linked to the luciferase reporter gene was prepared by digesting pcDNA3.1, containing the G418 resistance gene, with Nru I and Bam HI to remove the CMV promoter. LTR-luc was then cloned into the Nru I/Bam HI sites of the plasmid vector. Plasmid preparations were performed after the plasmids were amplified in Escherichia coli strain DH5-alpha. The fidelity of the inserted sequences was confirmed by double-strand nucleotide sequencing using an ABI Prism Model 377 automated sequencer.
Recombinant BacMam baculoviruses were constructed from pFastBacMam shuttle plasmids by using the bacterial cell-based Bac-to-Bac system. Viruses were propagated in Sf9 (Spodoptera frugiperda) cells cultured in Hink's TNM-FH Insect media supplemented with 10% (v/v) fetal bovine serum and 0.1% (v/v) pluronic F-68 according to established protocols.
Human osteosarcoma (HOS) cells that naturally express human CXCR4 were transfected with human CCR5, human CD4 and the pHIV-LTR-luciferase plasmid using FuGENE 6 transfection reagent. Single cells were isolated and grown under selection condition in order to generate a stable HOS (hCXCR4/hCCR5/hCD4/pHIV-LTR-luciferase) clonal cell line. The cells were maintained in Dulbeccos modified Eagles media supplemented with 10% fetal calf serum (FCS), G418 (400 ug/ml), puromycin (1 ug/ml), mycophenolic acid (40 ug/ml), xanthine (250 ug/ml) and hypoxanthine (13.5 ug/ml) to maintain a selection pressure for cells expressing the LTR-luciferase, hCCR5 and hCD4, respectively. Human embryonic kidney (HEK-293) cells stably transfected to express the human macrophage scavenging receptor (Class A, type 1; GenBank Accession No. D90187), were maintained in DMEM/F-12 media (1:1) supplemented with 10% FCS and 1.5 ug/ml puromycin. The expression of this receptor by the HEK-293 cells enhances their ability to stick to tissue culture treated plasticware.
HEK-293 cells were harvested using enzyme-free cell dissociation buffer. The cells were resuspended in DMEM/F-12 media supplemented with 10% FCS and 1.5 ug/ml and counted. Tranductions were performed by direct addition of BacMam baculovirus containing insect cell media to cells. The cells were simultaneously transduced with BacMam baculovirus expressing HIV-1 tat, HIV-1 rev and HIV-1 gp160 (from the HXB2 HIV strain). Routinely an MOI of 10 of each virus was added to the media containing the cells. 2 mM butyric acid was also added to the cells at this stage to increase protein expression in transduced cells. The cells were subsequently mixed and seeded into a flask at 30 million cells per T225. The cells were incubated at 37° C., 5% CO2, 95% humidity for 24 h to allow for protein expression.
HEK and HOS cells were harvested in DMEM/F-12 media containing 2% FCS and DMEM media containing 2% FCS, respectively, with no selection agents added. Compounds were plated as 1 ul spots in 100% DMSO on a 96-well CulturPlate plates. HOS cells (50 ul) were added first to the wells, followed immediately by the HEK cells (50 ul). The final concentration of each cell type was 20,000 cells per well. Following these additions, the cells were returned to a tissue culture incubator (37° C.; 5% CO2/95% air) for an additional 24 h.
Following the 24 h incubation, total cellular luciferase activity was measured using the LucLite Plus assay kit (Packard, Meridien, Conn.). […]

CXCR4 receptor = biological target: T1, CXCR4 receptor (Homo sapiens, UniProt P61073); test: Functional FLIPR assay (block of SDF-1 alpha induced [Ca2+]i change); details: HEK-293 cells with human CXCR4 BacMam and Gqi5 BacMam; antagonism of SDF-1 alpha; read-out: Functional assay (pIC50) (converted)
T1 construct: expressed in transfected cells; host or cells: HEK-293 cells (stably expressing human macrophage scavenging receptor) transduced with human CXCR4 BacMam and Gqi5 BacMam
Experimental: Human embryonic kidney (HEK-293) cells were maintained and harvested as described above. Cells were plated in 96-well, black clear bottom, poly-lysine coated plates at a concentration of 40,000 cells per well in a final volume of 100 ul containing human CXCR4 BacMam (MOI=25) and Gqi5 BacMam (MOI=12.5). The cells were incubated at 37° C., 5% CO2, 95% humidity for 24 h to allow for protein expression.
After the required incubation time the cells were washed once with 50 ul of fresh serum-free DMEM/F12 media containing probenicid. 50 ul of dye solution was then added to the cells (Calcium Plus Assay Kit Dye; Molecular Devices) was dissolved in 200 ml of the above probenicid/BSA containing media and incubated for 1 h. Cell plates were transferred to a Fluorometric Imaging Plate Reader (FLIPR). Upon addition the effect of the compounds on the change in [Ca^2+]i was examined to determine if the compounds were agonists or antagonists (ability to block SDF-1 alpha activity) at the CXCR4 receptor. IC50 values are determined and pKb values are calculated using the Leff and Dougall equation: KB=IC50/((2+([agonist]/EC50̂b)̂1/b -1) Where IC50 is that defined by the antagonist concentration-response curve [agonist] is the EC80 concentration of agonist used EC50 is that defined by the agonist concentration-response curve b is the slope of the agonist concentration-response curve.

[2] = test system: HIV-1 IIIB strain, T-tropic (CXCR4 utilizing); test: HOS HIV-1 infectivity assay
Experimental: (§1) Compounds were profiled against two HIV-1 viruses, the M-tropic (CCR5 utilizing) Ba-L strain and the T-tropic (CXCR4 utilizing) IIIB strain. Both viruses were propagated in human peripheral blood lymphocytes. Compounds were tested for there ability to block infection of the HOS cell line (expressing hCXCR4/hCCR5/hCD4/pHIV-LTR-luciferase) by either HIV-1 Ba-L or HIV-1 IIIB. Compound cytotoxicity was also examined in the absence of virus addition.
(§2) HOS cells (expressing hCXCR4/hCCR5/hCD4/pHIV-LTR-luciferase) were harvested and diluted in Dulbeccos modified Eagles media supplemented with 2% FCS and non-essential amino acid to a concentration of 60,000 cells/ml. The cells were plated into 96-well plates (100 ul per well) and the plates were placed in a tissue culture incubator (37° C.; 5% CO2/95% air) for a period of 24 h.
(§3) Subsequently, 50 ul of the desired drug solution (4 times the final concentration) was added to each well and the plates were returned to the tissue culture incubator (37° C.; 5% CO2/95% air) for 1 h. Following this incubation 50 ul of diluted virus was added to each well (approximately 2 million RLU per well of virus). The plates were returned to the tissue culture incubator (37° C.; 5% CO2/95% air) and were incubated for a further 96 h.
(§4) Following this incubation the endpoint for the virally infected cultures was quantified following addition of Steady-Glo Luciferase assay system reagent (Promega, Madison, Wis.). Cell viability or non-infected cultures was measured using a CellTiter-Glo luminescent cell viability assay system (Promega, Madison, Wis.). All luminescent readouts are performed on a Topcount luminescence detector (Packard, Meridien, Conn.).

[3] = Compound cytotoxicity in the absence of virus (CellTiter-Glo); details: human; non-infected HOS cultures, cell viability; read-out: Cytotox (pIC50) (converted)
Experimental: as §1, §2, §3, §4

[4] = Human immunodeficiency virus 1, IIIB, HOS HIV anti-infectivity assay, strain not named in Table 2, read-out: Activity Level
[5] = Human immunodeficiency virus 1, HOS cells, HIV-1 IIIB, 96 h, luciferase, read-out: HOS (3B)

T1 sequence (P61073 whole entry): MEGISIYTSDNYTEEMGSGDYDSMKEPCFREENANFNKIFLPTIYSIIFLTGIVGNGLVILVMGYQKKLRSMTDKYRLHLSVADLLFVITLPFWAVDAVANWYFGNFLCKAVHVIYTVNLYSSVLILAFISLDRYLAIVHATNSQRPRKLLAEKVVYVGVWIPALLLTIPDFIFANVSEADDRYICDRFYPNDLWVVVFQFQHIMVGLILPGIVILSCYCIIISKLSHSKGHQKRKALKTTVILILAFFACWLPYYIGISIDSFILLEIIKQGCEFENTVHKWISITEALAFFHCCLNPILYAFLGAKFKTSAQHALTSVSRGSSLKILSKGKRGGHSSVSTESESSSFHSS

In the case of `NCCCCN(Cc1cn2cc(Cl)ccc2n1)C1CCCc2cccnc21` (stereo not drawn) [Example 10, N-[(6-Chloroimidazo[1,2-a]pyridin-2-yl)methyl]-N-(5,6,7,8-tetrahydro-8-quinolinyl)-1,4-butanediamine], the IC50 [1] is reported as 115 nM, the IC50 (CXCR4 receptor) is reported as 29.5 nM and the IC50 [2, 4] is reported as < 0.1 µM. For the same compound, the IC50 [2, 5] was 0.041 µM and the IC50 at 96 h [3] was > 100000 nM.

`Cc1cc(C)n2cc(CN(CCCCN)C3CCCc4cccnc43)nc2c1` (stereo not drawn) [Example 15, N-[(5,7-Dimethylimidazo[1,2-a]pyridin-2-yl)methyl]-N-(5,6,7,8-tetrahydro-8-quinolinyl)-1,4-butanediamine] showed an IC50 [1] of 316 nM, an IC50 (CXCR4 receptor) of 93.3 nM and an IC50 [2, 4] of 0.1 to 0.5 µM. The IC50 [2, 5] was 0.112 µM and the IC50 at 96 h [3] was > 100000 nM.

With `NCCCCN(Cc1cn2cc(C(F)(F)F)ccc2n1)C1CCCc2cccnc21` (stereo not drawn) [Example 7, N-(5,6,7,8-Tetrahydro-8-quinolinyl)-N-{[6-(trifluoromethyl)imidazo[1,2-a]pyridin-2-yl]methyl}-1,4-butanediamine] the IC50 [1] was 191 nM, the IC50 (CXCR4 receptor) was 63.1 nM and the IC50 [2, 4] was 0.1 to 0.5 µM. For the same compound, the IC50 [2, 5] was 0.161 µM and the IC50 at 96 h [3] was > 100000 nM.

In the case of `NCCCCN(Cc1cn2cc(Cl)cc(Cl)c2n1)C1CCCc2cccnc21` (stereo not drawn) [Example 16, N-[(6,8-Dichloroimidazo[1,2-a]pyridin-2-yl)methyl]-N-(5,6,7,8-tetrahydro-8-quinolinyl)-1,4-butanediamine], the IC50 [1] is reported as 1290 nM, the IC50 (CXCR4 receptor) is reported as 49 nM and the IC50 [2, 4] is reported as 0.1 to 0.5 µM. The IC50 [2, 5] was 0.133 µM and the IC50 at 96 h [3] was > 100000 nM.

Work on `NCCCCN(Cc1cn2cc(C(F)(F)F)cc(Cl)c2n1)C1CCCc2cccnc21` (stereo not drawn) [Example 17, N-{[8-Chloro-6-(trifluoromethyl)imidazo[1,2-a]pyridin-2-yl]methyl}-N-(5,6,7,8-tetrahydro-8-quinolinyl)-1,4-butanediamine] yielded an IC50 [1] of 3890 nM, an IC50 (CXCR4 receptor) of 347 nM and an IC50 ([2]; Human immunodeficiency virus 1, IIIB, HOS, 96 h, read-out: HOS (3B) (μM)) of 0.3 µM. The IC50 ([2]; Human immunodeficiency virus 1, IIIB, read-out: Activity Level) was 0.1 to 0.5 µM and the IC50 at 96 h [3] was > 100000 nM.

With `NCCCCN(Cc1cn2c(F)cccc2n1)C1CCCc2cccnc21` (stereo not drawn) [Example 14, N-[(5-Fluoroimidazo[1,2-a]pyridin-2-yl)methyl]-N-(5,6,7,8-tetrahydro-8-quinolinyl)-1,4-butanediamine] the IC50 [1] was 407 nM, the IC50 (CXCR4 receptor) was 100 nM and the IC50 [2, 4] was < 0.1 µM. For the same compound, the IC50 [2, 5] was 0.091 µM and the IC50 at 96 h [3] was > 100000 nM.

In the case of `NCCCCN(Cc1cn2cc(F)ccc2n1)C1CCCc2cccnc21` (stereo not drawn) [Example 11, N-[(6-Fluoroimidazo[1,2-a]pyridin-2-yl)methyl]-N-(5,6,7,8-tetrahydro-8-quinolinyl)-1,4-butanediamine], the IC50 [1] is reported as 63.1 nM, the IC50 (CXCR4 receptor) is reported as 17 nM and the IC50 [2, 4] is reported as < 0.1 µM. The IC50 [2, 5] was 0.033 µM and the IC50 at 96 h [3] was > 100000 nM.

With `NCCCCN(Cc1cn2ccc(C(F)(F)F)cc2n1)C1CCCc2cccnc21` (stereo not drawn) [Example 6, N-(5,6,7,8-Tetrahydro-8-quinolinyl)-N-{[7-(trifluoromethyl)imidazo[1,2-a]pyridin-2-yl]methyl}-1,4-butanediamine] the IC50 [1] was 4470 nM, the IC50 (CXCR4 receptor) was 2190 nM and the IC50 [2, 4] was 0.5 to 10 µM. The IC50 [2, 5] was 1.4 µM and the IC50 at 96 h [3] was > 100000 nM.

For `CN1CCN(c2cccc3nc(CN(CCCCN)C4CCCc5cccnc54)cn23)CC1` (stereo not drawn) [Example 24, N-{[5-(4-Methyl-1-piperazinyl)imidazo[1,2-a]pyridin-2-yl]methyl}-N-(5,6,7,8-tetrahydro-8-quinolinyl)-1,4-butanediamine], the IC50 [1] was 4.9 nM, the IC50 (CXCR4 receptor) was 41.7 nM and the IC50 [2, 4] was < 0.1 µM. For the same compound, the IC50 [2, 5] was 0.0036 µM and the IC50 at 96 h [3] was > 100000 nM.

For `NCCCCN(Cc1cn2c(Cl)cccc2n1)C1CCCc2cccnc21` (stereo not drawn) [Example 13, N-[(5-Chloroimidazo[1,2-a]pyridin-2-yl)methyl]-N-(5,6,7,8-tetrahydro-8-quinolinyl)-1,4-butanediamine], the IC50 [1] was 91.2 nM, the IC50 (CXCR4 receptor) was 40.7 nM and the IC50 [2, 4] was < 0.1 µM. For the same compound, the IC50 [2, 5] was 0.025 µM and the IC50 at 96 h [3] was > 100000 nM.

For `NCCCCN(Cc1cn2c(Br)cccc2n1)C1CCCc2cccnc21` (stereo not drawn) [Example 12, N-[(5-Bromoimidazo[1,2-a]pyridin-2-yl)methyl]-N-(5,6,7,8-tetrahydro-8-quinolinyl)-1,4-butanediamine], the IC50 [1] was 28.8 nM, the IC50 (CXCR4 receptor) was 9.77 nM and the IC50 [2, 4] was < 0.1 µM. For the same compound, the IC50 [2, 5] was 0.01 µM and the IC50 at 96 h [3] was > 100000 nM.

With `Cc1c(Br)ccc2nc(CN(CCCCN)C3CCCc4cccnc43)cn12` (stereo not drawn) [Example 18, N-[(6-Bromo-5-methylimidazo[1,2-a]pyridin-2-yl)methyl]-N-(5,6,7,8-tetrahydro-8-quinolinyl)-1,4-butanediamine] the IC50 [1] was 155 nM, the IC50 (CXCR4 receptor) was 30.9 nM and the IC50 [2, 4] was < 0.1 µM. The IC50 [2, 5] was 0.088 µM and the IC50 at 96 h [3] was > 100000 nM.
